Assays:
[1] = test system: heme oxygenase-1 (HO-1); assay: Western blot of HO-1 expression in mice macrophages; type: cell-based; conditions: 10^−5 M, analysed at 15, 30, 60 min (diacerein, FIG. 7b) or 0-120 min and 18 h (rhein, FIG. 7c)
Protocol: FIGS. 7b and 7c are also <<Western blots >> of cells (model: mice macrophages) cultivated with and without diacerein (FIG. 7b: columns “Dε” and “Cε” respectively) or rhein (FIG. 7c) at a concentration of 10^−5 M, and later analysed at 15, 30 and 60 minutes (FIG. 7b) and at 0, 15, 30, 60, 120 minutes as well as 18 hours (FIG. 7c). The identity of the protein of interest, HO-1, was confirmed as regards its molecular mass (first column on the left in the Figures).

[2] = test system: human chondrocytes; assay: Human chondrocyte culture treated with erythrocyte lysate (cellular viability, apoptosis); type: cell-based; conditions: lysate of 3×10^6 erythrocytes, 100 μM
Protocol: The whole cellular culture was measured by its cellular viability (live cells compared to the control), the presence of apoptosis (nuclear fragmentation; in number and percentage compared to the control), and the incorporation of radioactive sulphate (^35SO4; in coups per minutes, CPM).
As was already observed with the femoral head cartilage, the erythrocytes, erythrocyte lysate and haemoglobin also cause cellular destruction in this model. However, stress-induced HSPs prevent this cellular destruction and preserve the cells, as shown on FIG. 6 which counts the live cells (model: human chondrocytes under thermal stress (1 h at 43° C.) and treated with erythrocyte lysate (3×10^6); sem=standard error).

[3] = cited from earlier work
[4] = test system: TO mice implanted with rat tissue; assay: Induced granuloma and tissue degradation of rat tissue implanted subcutaneously in mice; type: in vivo, mouse; conditions: for integrity of the implanted/grafted tissue / tissular reaction (granuloma, inflammatory cells, exudate) caused by the transplant of rat tissue to the mouse: overall statement
Protocol: The effect of diacerein, rhein and their salts or esters on the intensity of the tissular reaction and the destruction and rejection phenomena was assessed following a tissue implantation, using the model of induced granuloma and tissue degradation of rat tissue in mice (Bottomley K M and al., Osteoarthritis and Cartilage (1998) 6: 19-23.).
The method comprises the following steps: • The isolated tissue (Wistar rat, male) are placed in sterile cotton and implanted subcutaneously in TO mice; • the subcutaneous implants are kept for a period of 2 weeks; • daily treatment of the animals with diacerein, rhein, their salts or esters, as well as with the controls and comparatives, at the optimum doses indicated; • collection of the implanted tissue and of the reactive granuloma; • measurement of the degree of tissular inflammatory response (assessment of the dimensions of the granuloma, of the number of inflammatory cells in the exudate and of the volume of the exudate), and of the rejection (assessment of the degradation of the implanted tissue).

[5] = test system: patients presenting with osteoarthritis; conditions: cited from earlier work; for antalgic and anti-inflammatory symptomatic activity: acute phase of osteoarthritis, Nguyen et al. 1994
[6] = test system: heme oxygenase-1 (HO-1); assay: Western blot of HO-1 expression in rat femoral head cartilage culture; type: cell-based; conditions: diacerein 10 μM and 100 μM, compared to control and reference solution, FIG. 7a

| Compound | expression of HO-1 [1] | apoptosis caused by the erythrocyte lysate ([2]; FIG. 9) | solubility in alcohols [3] | solubility in water [3] | integrity of the implanted/grafted tissue [4] | tissular reaction (granuloma, inflammatory cells, exudate) caused by the transplant of rat tissue to the mouse [4] | antalgic and anti-inflammatory symptomatic activity [5] | cellular destruction caused by the erythrocyte lysate (live cells) ([2]; FIG. 8) | tissular reaction (formation of the reactive granuloma) ([4]; 5, 15 and 50 mg/kg per oral route, daily, 2 weeks, p<0.01 vs control, FIG. 10) | integrity of the grafted tissue: content in collagen ([4]; 5, 15 and 50 mg/kg per oral route, p<0.05 / p<0.01 vs control, FIG. 12 left) | integrity of the grafted tissue: content in glycosamino-glycan (GAG) ([4]; 5, 15 and 50 mg/kg per oral route, p<0.05 / p<0.01 vs control, FIG. 12 right) | tissular reaction: number of inflammatory cells ([4]; 5, 15 and 50 mg/kg per oral route, p<0.05 vs control, FIG. 11 left) | tissular reaction: volume of the exudate ([4]; 5, 15 and 50 mg/kg per oral route, p<0.05 vs control, FIG. 11 right) | progression of osteoarthritis ([5]; patients with osteoarthritis) | safety of use ([5]; patients with osteoarthritis) | expression of HO-1 [6] |
| --- | --- | --- | --- | --- | --- | --- | --- | --- | --- | --- | --- | --- | --- | --- | --- | --- |
| O=C(O)c1cc(O)c2c(c1)C(=O)c1cccc(O)c1C2=O [rhein] | time-dependant increase | prevents the apoptosis | very slightly soluble | very slightly soluble | preserve the integrity of the implanted tissue | reduce the tissular reaction | moderate | – | – | – | – | – | – | – | – | – |
| CC(=O)Oc1cccc2c1C(=O)c1c(OC(C)=O)cc(C(=O)O)cc1C2=O [diacerein] | time-dependant increase | – | very slightly soluble | very slightly soluble | preserve the integrity of the implanted tissue | reduce the tissular reaction | moderate | prevents the cellular destruction | dose-dependent reduction | preserves the integrity of the grafted tissue | preserves the integrity of the grafted tissue | reduced in a dose-dependent manner | reduced in a dose-dependent manner | slows down the progression of osteoarthritis | good safety of use | dose-dependent increase |
